The source made the active and inactive calls. No cut-off for these calls is given here.

The values that follow come from ChEMBL document CHEMBL4000170 (Eur J Med Chem, 2017).

In assay [1] the test system is DU-145. The assay is described as follows: Antiproliferative activity against AR negative human DU145 cells after 3 days by MTT assay. The assay is classed as functional, cell-based. Particulars: DU-145, 72 h. Background: Tetrazolium assays rely on reduction of a dye to a coloured formazan, in cell work by metabolically active cells.
The nature of assay [2]: Antiproliferative activity against human LNCaP-hr cells expressing AR T877A mutant after 3 days by MTT assay. It is filed as functional, cell-based. Conditions: 72 h.
The target in assay [3] is T1, Androgen receptor (Homo sapiens) (UniProt P10275).
T1 sequence (whole entry): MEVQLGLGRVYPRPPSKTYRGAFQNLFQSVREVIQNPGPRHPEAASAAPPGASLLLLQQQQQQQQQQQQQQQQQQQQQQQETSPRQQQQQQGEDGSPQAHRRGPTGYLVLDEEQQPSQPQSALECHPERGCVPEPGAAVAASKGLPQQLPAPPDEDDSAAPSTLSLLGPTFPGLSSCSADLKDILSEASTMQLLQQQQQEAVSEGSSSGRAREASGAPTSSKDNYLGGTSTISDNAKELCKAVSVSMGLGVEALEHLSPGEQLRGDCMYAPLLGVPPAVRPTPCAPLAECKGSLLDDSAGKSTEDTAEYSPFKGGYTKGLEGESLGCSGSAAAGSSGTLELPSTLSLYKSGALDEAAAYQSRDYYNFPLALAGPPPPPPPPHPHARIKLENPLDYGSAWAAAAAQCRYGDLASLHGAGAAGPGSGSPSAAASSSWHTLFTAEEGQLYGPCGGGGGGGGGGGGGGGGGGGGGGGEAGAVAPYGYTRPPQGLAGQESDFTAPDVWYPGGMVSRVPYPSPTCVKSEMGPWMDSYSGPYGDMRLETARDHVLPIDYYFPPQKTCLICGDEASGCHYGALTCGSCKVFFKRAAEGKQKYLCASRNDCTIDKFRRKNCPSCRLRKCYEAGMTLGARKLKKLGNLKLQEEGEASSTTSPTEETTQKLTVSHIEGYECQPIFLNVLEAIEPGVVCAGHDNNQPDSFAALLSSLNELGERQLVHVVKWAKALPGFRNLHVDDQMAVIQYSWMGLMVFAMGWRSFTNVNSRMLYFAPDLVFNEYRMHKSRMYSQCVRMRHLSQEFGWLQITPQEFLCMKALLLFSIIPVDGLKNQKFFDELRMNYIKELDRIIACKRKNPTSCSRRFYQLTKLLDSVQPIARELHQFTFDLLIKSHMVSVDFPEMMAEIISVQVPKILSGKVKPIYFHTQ
Particulars: at 10 µM.
Description: Antagonist activity at androgen receptor (unknown origin) expressed in COS-7 cells assessed as inhibition of R1881-induced MMTV promoter activity at 10 uM by luciferase reporter gene assay relative to control

Assay [4] relates to Androgen receptor (Homo sapiens), P10275 [T878A]. Conditions: at 10 µM.
Chain of Androgen receptor (Homo sapiens), P10275 [T878A] (P10275 whole entry T878A, the tested form may be a part): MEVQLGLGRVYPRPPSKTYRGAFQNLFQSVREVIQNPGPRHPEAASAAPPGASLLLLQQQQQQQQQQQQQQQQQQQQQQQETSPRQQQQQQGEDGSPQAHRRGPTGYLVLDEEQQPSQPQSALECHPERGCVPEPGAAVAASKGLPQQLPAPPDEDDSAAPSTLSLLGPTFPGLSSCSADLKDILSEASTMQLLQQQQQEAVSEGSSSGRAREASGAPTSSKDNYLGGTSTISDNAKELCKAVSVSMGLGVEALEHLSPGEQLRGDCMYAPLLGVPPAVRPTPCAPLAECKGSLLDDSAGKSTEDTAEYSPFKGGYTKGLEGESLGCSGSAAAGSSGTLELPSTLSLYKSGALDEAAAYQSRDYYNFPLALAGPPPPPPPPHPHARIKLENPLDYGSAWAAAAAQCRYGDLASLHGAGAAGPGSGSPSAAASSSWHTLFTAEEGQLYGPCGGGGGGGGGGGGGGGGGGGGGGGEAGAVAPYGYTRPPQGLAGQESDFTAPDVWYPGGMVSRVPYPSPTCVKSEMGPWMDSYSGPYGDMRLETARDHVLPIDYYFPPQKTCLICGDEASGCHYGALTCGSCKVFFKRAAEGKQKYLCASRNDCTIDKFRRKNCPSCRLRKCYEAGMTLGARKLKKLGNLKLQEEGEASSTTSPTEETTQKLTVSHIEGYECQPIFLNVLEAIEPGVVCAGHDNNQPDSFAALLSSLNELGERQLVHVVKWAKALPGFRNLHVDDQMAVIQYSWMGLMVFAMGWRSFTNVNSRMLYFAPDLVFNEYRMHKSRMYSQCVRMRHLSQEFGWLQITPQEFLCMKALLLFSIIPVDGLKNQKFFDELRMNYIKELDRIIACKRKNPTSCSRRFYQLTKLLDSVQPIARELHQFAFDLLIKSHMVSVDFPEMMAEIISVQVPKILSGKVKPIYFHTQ
Description: Inhibition of R1881-induced AR T877A mutant nuclear translocation in human LNCAP cells assessed as reduction in ratio of nuclear to cytoplasmic AR levels at 10 uM after 12 hrs by DAPI-staining based fluorescent microscopy
A short description of assay [5]: Displacement of Fluormone-AL green from rat GST/His-tagged AR LBD mutant after 4 hrs by Fluorescence polarization assay.

With `N#Cc1ccc(N2C(=O)C3Cc4ccc(C(=O)NCCO)cc4N3C2=S)cc1C(F)(F)F` (configuration not stated), the IC50 (usually the concentration at which inhibition is half-maximal) was found to be 175 µM in assay [1] and 25.8 µM in assay [2]. The inhibition (in general, the share of the control response that was lost under treatment) in assay [3] is 37%.
For the compound `N#Cc1ccc(N2C(=O)C3CC4CCCCC4N3C2=S)cc1C(F)(F)F` (configuration not stated), the 50% inhibitory concentration (IC50) in assay [1] was found to be 128 µM; in assay [2], 36.2 µM. The same compound returned an inhibition in assay [3] of 50.5%.
Consider `N#Cc1ccc(N2C(=O)C3Cc4ccc(C(=O)NC5CCCCC5)cc4N3C2=S)cc1C(F)(F)F` (configuration not stated), for which the concentration for half-maximal inhibition (IC50) came to 101 µM in assay [1] and 29.3 µM in assay [2]. Further, the inhibition in assay [3] came out at 22.9%.
For the compound `N#Cc1ccc(N2C(=O)C3Cc4ccc(I)cc4N3C2=S)cc1C(F)(F)F` (configuration not stated), the IC50 in assay [1] stood at 190 µM; in assay [2], 71.9 µM. Also, in assay [3], the inhibition was 58.4%.
On to `CCNC(=O)c1ccc2c(c1)N1C(=S)N(c3ccc(C#N)c(C(F)(F)F)c3)C(=O)C1C2` (configuration not stated), for which the IC50 in assay [1] stood at 105 µM; in assay [2], 35.3 µM. In addition, the inhibition in assay [3] is 2.1%.
For `N#Cc1ccc(N2C(=O)C3Cc4cc(Br)ccc4N3C2=S)cc1C(F)(F)F` (configuration not stated) the same measures were > 200 µM, 83.7 µM and 57.1%.
With `N#Cc1ccc(N2C(=O)c3cc4ccccc4n3C2=S)cc1C(F)(F)F`, the IC50 in assay [1] is 146 µM; in assay [2], 33.4 µM. The inhibition in assay [3] is 21.1%.
On to `CCNC(=O)c1cc2c(cc1F)N1C(=S)N(c3ccc(C#N)c(C(F)(F)F)c3)C(=O)C1C2` (configuration not stated), for which the 50% inhibitory concentration (IC50) was 115 µM in assay [1] and 54.1 µM in assay [2]. Further, the inhibition entry in assay [3] is “inactive”.
As for `CNC(=O)c1cc2c(cc1F)N1C(=S)N(c3ccc(C#N)c(C(F)(F)F)c3)C(=O)C1C2` (configuration not stated), the IC50 was > 200 µM in assay [1] and 58.2 µM in assay [2]. Moreover, the inhibition result in assay [3] was “inactive”.
With `CCCCNC(=O)c1ccc2c(c1)N1C(=S)N(c3ccc(C#N)c(C(F)(F)F)c3)C(=O)C1C2` (configuration not stated), the results for the IC50 in assay [1] and in assay [2] were 58 µM and 77.2 µM, respectively. Further, the inhibition result in assay [3] is “inactive”.
Consider `N#Cc1ccc(N2C(=O)C3Cc4cc([N+](=O)[O-])ccc4N3C2=S)cc1C(F)(F)F` (configuration not stated), for which the 50% inhibitory concentration (IC50) in assay [1] was found to be 78.4 µM; in assay [2] it was 64.7 µM. This compound also had an inhibition in assay [3] of 21.8%.
With `N#Cc1ccc(N2C(=O)C3Cc4cc(N)ccc4N3C2=S)cc1C(F)(F)F` (configuration not stated), the half-inhibitory concentration (IC50) was > 200 µM in assay [1] and 99.1 µM in assay [2]. The inhibition in assay [3] was determined as 23.4%.
Take `N#Cc1ccc(N2C(=O)C3CC(O)CN3C2=S)cc1C(F)(F)F` (configuration not stated): the IC50 in assay [1] is > 200 µM; in assay [2] it was 52.6 µM. Moreover, the inhibition in assay [3] stood at 1.9%.
`N#Cc1ccc(N2C(=O)C3CCCN3C2=S)cc1C(F)(F)F` (configuration not stated): the figures for the IC50 in assay [1] and in assay [2] were > 200 µM and 87.7 µM, respectively. The compound also came in with an inhibition in assay [3] of 32%.
Turning to `N#Cc1ccc(N2C(=O)C3Cc4ccc(N)cc4N3C2=S)cc1C(F)(F)F` (configuration not stated), the IC50 in assay [1] was found to be 67 µM; in assay [2], 32.6 µM. For the same compound, the inhibition in assay [3] was found to be 29%.
Consider `N#Cc1ccc(N2C(=O)C3Cc4ccc(Cl)cc4N3C2=S)cc1C(F)(F)F` (configuration not stated), for which the inhibition entry in assay [4] is “Active”. Besides, the figures for the IC50 in assay [1], in assay [2] and in assay [5] were > 200 µM, 27.9 µM and 2.33 µM, respectively. Besides, the inhibition in assay [3] was 71.9%.
As to `N#Cc1ccc(N2C(=O)C3Cc4ccccc4N3C2=S)cc1C(F)(F)F` (configuration not stated), the IC50 in assay [1] worked out at 143 µM; in assay [2], 15.3 µM.
As to `CC(C)CNC(=O)c1cc2c(cc1F)N1C(=S)N(c3ccc(C#N)c(C(F)(F)F)c3)C(=O)C1C2` (configuration not stated), the half-inhibitory concentration (IC50) was > 200 µM in assay [1] and 70.7 µM in assay [2]. For the same compound, the inhibition result in assay [3] is “inactive”.
Consider `CCCNC(=O)c1cc2c(cc1F)N1C(=S)N(c3ccc(C#N)c(C(F)(F)F)c3)C(=O)C1C2` (configuration not stated), for which the half-inhibitory concentration (IC50) in assay [1] is > 200 µM; in assay [2] it was 11.2 µM. For the same compound, the inhibition entry in assay [3] was “inactive”.
For `N#Cc1ccc(N2C(=O)C3Cc4cc(Cl)ccc4N3C2=S)cc1C(F)(F)F` (configuration not stated), the IC50 in assay [1] was 160 µM; in assay [2] it was 46 µM. Besides, in assay [3], the inhibition came out at 6.7%.
`CC(O)CNC(=O)c1ccc2c(c1)N1C(=S)N(c3ccc(C#N)c(C(F)(F)F)c3)C(=O)C1C2` (configuration not stated): the IC50 is > 200 µM in assay [1] and 48.4 µM in assay [2]. Also, the inhibition in assay [3] is 39.3%.
Consider `C[C@]1(O)CC[C@H]2[C@@H]3CCC4=CC(=O)CCC4=C3C=C[C@@]21C`, for which the inhibition result in assay [3] was “inactive”.
Consider `CNC(=O)c1ccc(N2C(=S)N(c3ccc(C#N)c(C(F)(F)F)c3)C(=O)C2(C)C)cc1F` [ENZALUTAMIDE], for which the 50% inhibitory concentration (IC50) in assay [2] turned out to be 12.5 µM; in assay [5] it was 1.35 µM.
For `CCCCNC(=O)c1cc2c(cc1F)N1C(=S)N(c3ccc(C#N)c(C(F)(F)F)c3)C(=O)C1C2` (configuration not stated), the IC50 in assay [1] came to 175 µM; in assay [2], 67.3 µM. The inhibition entry in assay [3] is “inactive”.
Take `CNC(=O)c1ccc2c(c1)N1C(=S)N(c3ccc(C#N)c(C(F)(F)F)c3)C(=O)C1C2` (configuration not stated): the values for the IC50 in assay [1] and in assay [2] were > 200 µM and 144 µM, respectively. For the same compound, the inhibition in assay [3] was determined as 13.1%.
As to `N#Cc1ccc(N2C(=O)C3Cc4cc(C(=O)NC5CCCCC5)c(F)cc4N3C2=S)cc1C(F)(F)F` (configuration not stated), the figures for the IC50 in assay [1] and in assay [2] were 126 µM and 44.9 µM, respectively. Moreover, the inhibition in assay [3] turned out to be 55.1%.
Take `N#Cc1ccc(N2C(=O)C3Cc4ccc([N+](=O)[O-])cc4N3C2=S)cc1C(F)(F)F` (configuration not stated): the half-inhibitory concentration (IC50) in assay [1] was > 200 µM; in assay [2], 26.9 µM; in assay [5] it was 4.49 µM. The inhibition in assay [3] is 58.2%.
As to `N#Cc1ccc(N2C(=O)C3Cc4ccc(Br)cc4N3C2=S)cc1C(F)(F)F` (configuration not stated), the IC50 in assay [1] was > 200 µM; in assay [2], 30.4 µM; in assay [5], 2.98 µM. This compound displayed an inhibition in assay [3] of 68.3%.
For `CCCNC(=O)c1ccc2c(c1)N1C(=S)N(c3ccc(C#N)c(C(F)(F)F)c3)C(=O)C1C2` (configuration not stated), the IC50 came to 114 µM in assay [1] and 90.8 µM in assay [2]. Further, in assay [3], the inhibition result was “inactive”.
